# Reference: patent publication US8871492B2, “Anti-dementia substance from Hericium erinaceum and method of extraction” (priority 2008, dated 2014)
# Values joined by “and” are separate entries in the source; they are usually repeats but may differ in a detail not shown here. Identical values can stand only once.
# System: Aβ1-40-induced AD rats
# Assay: Morris Water Maze Test on Aβ1-40-induced AD rats
# Format: in vivo, Sprague-Dawley male rats
# Conditions: for Arrival Time of Platform: Donepezil 1 mg/kg by stomach tube once per day
# Experimental: The control group was injected with 5 μL of saline. […] From the fourth week after the administration, learning and memory-related behavior was assessed using the Morris Water Maze Test on ten rats arbitrarily-chosen from each group once a day for one week (from day 1 to day 6 the time to arrive at the platform is measured, and on day 7 the platform is removed and the frequency to cross (pass by) the platform location is counted). After completing the behavioral test, the rats were sacrificed. The cerebral tissues separated from half of the rats of each group were used for pathological examination, and the olfactory bulb, hippocampus, locus ceruleus, and cerebral cortex from another half were used to determine the NGF content with enzyme-linked immunosorbent assay (ELISA).
smiles,measurement,setting,value
COc1cc2c(cc1OC)C(=O)C(CC1CCN(Cc3ccccc3)CC1)C2 (centres unmarked) [Donepezil],Arrival Time of Platform,"Day 1, n = 10",77.03 ± 29.92 s
same,Arrival Time of Platform,"Day 2, n = 10",39.10 ± 26.36 s
same,Arrival Time of Platform,"Day 3, n = 10",34.98 ± 23.42 s
same,Arrival Time of Platform,"Day 4, n = 10",31.10 ± 23.26 s
same,Arrival Time of Platform,"Day 5, n = 10",30.00 ± 21.11 s
same,Arrival Time of Platform,"Day 6, n = 10",28.43 ± 23.45 s
same,Frequencies of crossing platform location within two minutes,"day 7, individual rats No. 1-10, Donepezil 1 mg/kg",14 and 11 and 22 and 19 and 10 (2×) and 13 and 8 and 6 and 7
same,"Frequencies of crossing platform location within two minutes, Mean ± SD","day 7, n = 10, Donepezil 1 mg/kg",12.00 ± 5.16
